Experimental findings from patent US9545105B2, “1-(heterocyclic carbonyl) piperidines” (BAYER INTELLECTUAL PROPERTY GMBH, priority 2010, dated 2017) are described below.

Data set [1] can be described thus: log P by HPLC on reversed-phase column (C 18), EEC Directive 79/831 Annex V.A8. It counts as physicochemical. The conditions noted are these: HPLC on reversed-phase column (C 18); 40° C.; 0.1% aqueous formic acid and acetonitrile; linear gradient 10% to 90% acetonitrile. In short, it runs like this:
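Column at 40° C; mobile phases 0.1% aqueous formic acid and acetonitrile, linear gradient 10% to 90% acetonitrile. Calibrated with unbranched alkan-2-ones (3 to 16 carbons) of known log P; values from retention times by linear interpolation between two successive alkanones.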

For a further data set, the system named is Sphaerotheca fuliginea. As to the kind of experiment: In vivo preventive test on Sphaerotheca fuliginea (cucumber). Particulars: 500 ppm of active ingredient, evaluated 7 days after inoculation. Put shortly: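 Active compound in DMF with alkylarylpolyglycolether emulsifier, diluted in water and sprayed on young cucumber plants at the stated rate. One day later, plants inoculated with S. fuliginea spore suspension and kept at about 23 °C, 70% RH; efficacy scored 7 days post-inoculation, 0% = untreated, 100% = no disease.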

The subject of the next data set is Pyrenophora teres. As to the kind of experiment: In vivo preventive test on Pyrenophora teres (barley). Particulars: 500 ppm of active ingredient, evaluated 7-9 days after inoculation. In short, it runs like this: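 Young barley plants sprayed with compound in DMF/alkylaryl polyglycol ether emulsion; inoculated with P. teres spores one day later. 48 h at 22 °C, 100% humidity, then greenhouse ~20 °C, ~80% humidity; efficacy scored 7-9 days post-inoculation, 0% = untreated, 100% = no disease.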

Another data set concerns Uromyces appendiculatus. As to the kind of experiment: In vivo preventive test on Uromyces appendiculatus (bean rust). Particulars: 100 ppm of active ingredient, evaluated 10 days after inoculation. How it is done:
Solvent: 24.5 parts by weight of acetone • 24.5 parts by weight of N,N-dimethylacetamide Emulsifier: 1 part by weight of alkylaryl polyglycol ether To produce a suitable preparation of active compound, 1 part by weight of active compound is mixed with the stated amounts of solvent and emulsifier, and the concentrate is diluted with water to the desired concentration. To test for preventive activity, young plants are sprayed with the preparation of active compound at the stated rate of application. After the spray coating has dried on, the plants are inoculated with an aqueous spore suspension of the causal agent of bean rust (Uromyces appendiculatus) and then remain for 1 day in an incubation cabinet at approximately 20° C. and a relative atmospheric humidity of 100%. The plants are then placed in a greenhouse at approximately 21° C. and a relative atmospheric humidity of approximately 90%. The test is evaluated 10 days after the inoculation. 0% means an efficacy which corresponds to that of the untreated control, while an efficacy of 100% means that no disease is observed.

Another data set concerns Septoria tritici. Put plainly: In vivo preventive test on Septoria tritici (wheat). The conditions noted are these: 500 ppm of active ingredient, evaluated 21 days after inoculation. How it is done:
(§1) Solvent: 49 parts by weight of N,N-dimethylacetamide Emulsifier: 1 part by weight of alkylaryl polyglycol ether To produce a suitable preparation of active compound, 1 part by weight of active compound or active compound combination is mixed with the stated amounts of solvent and emulsifier, and the concentrate is diluted with water to the desired concentration. To test for preventive activity, young plants are sprayed with the preparation of active compound or active compound combination at the stated rate of application. After the spray coating has been dried, the plants are sprayed with a spore suspension of Septoria tritici. The plants remain for 48 hours in an incubation cabinet at approximately 20° C. and a relative atmospheric humidity of approximately 100% and afterwards for 60 hours at approximately 15° C. in a translucent incubation cabinet at a relative atmospheric humidity of approximately 100%. The plants are placed in the greenhouse at a temperature of approximately 15° C. and a relative atmospheric humidity of approximately 80%. The test is evaluated 21 days after the inoculation. 0% means an efficacy which corresponds to that of the untreated control, while an efficacy of 100% means that no disease is observed.

The test system of another data set is Puccinia triticina. As to the kind of experiment: In vivo preventive test on Puccinia triticina (wheat). Particulars: 500 ppm of active ingredient, evaluated 8 days after inoculation. How it is done:
as §1, with “Puccinia triticina.” for “Septoria tritici.”, “approximately” for “approximately 100% and afterwards for 60 hours at approximately 15° C. in a translucent incubation cabinet at a relative atmospheric humidity of approximately”, “20°” for “15°”, “8” for “21”

The subject of data set [2] is Fusarium nivale (var. majus). As to the kind of experiment: In vivo preventive test on Fusarium nivale (wheat). Particulars: 500 ppm of active ingredient, evaluated 5 days after inoculation. How it is done:
Solvent: 49 parts by weight of N,N-dimethylacetamide Emulsifier: 1 part by weight of alkylaryl polyglycol ether To produce a suitable preparation of active compound, 1 part by weight of active compound or active compound combination is mixed with the stated amounts of solvent and emulsifier, and the concentrate is diluted with water to the desired concentration. To test for preventive activity, young plants are sprayed with the preparation of active compound or active compound combination at the stated rate of application. After the spray coating has been dried, the plants are slightly injured by using a sandblast and afterwards they are sprayed with a conidia suspension of Fusarium nivale (var. majus). The plants are placed in the greenhouse under a translucent incubation cabinet at a temperature of approximately 10° C. and a relative atmospheric humidity of approximately 100%. The test is evaluated 5 days after the inoculation. 0% means an efficacy which corresponds to that of the untreated control, while an efficacy of 100% means that no disease is observed.

`Cc1cc(C)cc(C2CCCCN2C(=O)c2c(C)nn(C)c2F)c1` (centres unmarked) [Example 10] returned a logP in data set [1] of 3.23. Further, the Efficacy with Sphaerotheca fuliginea is given as 95%; in the data set with Pyrenophora teres, 100%; with Uromyces appendiculatus it was 100%; with Septoria tritici, 70%; with Puccinia triticina it was 88%; in data set [2], 88%.
In data set [1], `CCc1nn(C)c(F)c1C(=O)N1CCCCC1c1cc(C)cc(C)c1` (centres unmarked) [Example 11] showed a logP of 3.62. Moreover, the Efficacy with Sphaerotheca fuliginea came out at 95%; with Pyrenophora teres, 100%; in the data set on Uromyces appendiculatus, 98%; with Septoria tritici, 100%; with Puccinia triticina, 100%; in data set [2], 83%.
Turning to `CCc1nn(C)c(F)c1C(=O)N1CCCCC1c1ccc(Cl)cc1` (centres unmarked) [Example 54], in data set [1], the logP is given as 3.35. Also, the Efficacy with Pyrenophora teres is listed as 100%; with Uromyces appendiculatus, 96%; with Septoria tritici, 100%; in the data set on Puccinia triticina, 100%; in data set [2], 71%.
In data set [1], `CCC(c1ccccc1)C1CCCCN1C(=O)c1c(C(F)F)nn(C)c1F` (centres unmarked) [Example 136] registered a logP of 3.59. Further, the Efficacy amounted to 98% with Sphaerotheca fuliginea; 100% with Pyrenophora teres; 78% in the data set with Uromyces appendiculatus; 100% with Septoria tritici; 86% in data set [2].
In data set [1], `CCC(c1ccccc1)C1CCCCN1C(=S)c1c(C(F)F)nn(C)c1F` (centres unmarked) [Example 140] displayed a logP of 4.39. Further, the Efficacy in the data set with Sphaerotheca fuliginea came out at 100%; in the data set on Pyrenophora teres, 100%; with Uromyces appendiculatus, 94%; in the data set with Septoria tritici, 100%; in data set [2], 71%.
